Assay results published in PMC6332354 (Molecules, 2015).

Assays:
[1] = biological target: T1, rat ACC1 (Rattus norvegicus, UniProt P11497); test: ACC1 in vitro assay (Kinase-Glo Plus luminescence); assay type: biochemical; details: arithmetic means of three experiments, standard deviation in parentheses
T1 construct: purchased Huawei Pharmaceutical Co. Ltd (Shanghai, China)
Procedure: (§1) To investigate the biological activities of the synthesized compounds, the in vitro inhibitory activities of these compounds against both rat ACC1 and ACC2 were evaluated according to the previous experimental method with some changes. The ACC1 and ACC2 enzymes were supplied by Huawei Pharmaceutical Co. Ltd (Shanghai, China). […] Then, the solution was diluted with buffer solution until it reached the required concentration (1 nM to 10 μM) and 5μL of the dilution was added to a 50 μL reaction mixture containing 30 mM HEPES, pH 7.4, 2 mM MgCl2, 2 mM sodium citrate, 1 mM DTT, 25 μM ATP, 16 mM NaHCO3 and 15 μM acetyl-CoA. All of the enzymatic reactions were conducted at 30 °C for 60 min. The assay was performed using Kinase-Glo Plus luminescence kinase assay kit (Beijing, China), which measures kinase activity by quantifying the amount of ATP remaining in solution following a kinase reaction. The luminescent signal from the assay […] with the amount of kinase activity. The same concentrations of DMSO were tested in parallel and used as background control. The inhibition percentage was expressed as the average value from three independent experiments.

[2] = biological target: T2, rat ACC2 (Rattus norvegicus, UniProt D3ZBE2); test: ACC2 in vitro assay (Kinase-Glo Plus luminescence); assay type: biochemical; details: arithmetic means of three experiments, standard deviation in parentheses
T2 construct: purchased Huawei Pharmaceutical Co. Ltd (Shanghai, China)
Procedure: as §1

[3] = system: human embryonic lung fibroblast (HELF) cells; test: In vitro cytotoxicity, MTT test; assay type: cell-based; details: HELF (WI-38) cells, 48 h incubation
Procedure: In the cytotoxicity experiment, tetrazolium-based colorimetric assay (MTT test) was used to measure the cytotoxic effect of these selected potent compounds on normal cells. Human embryonic lung fibroblast cell line (HELF, WI-38) was purchased from the Cell Resource Center, Chinese Academy of Medical Sciences (Beijing, China). Briefly, cells (5000 per well) were collected and seeded in 96-well plates. After incubation for 24 h, cells were exposed to fresh medium containing various concentrations of test compound at 37 °C. After incubation for 48 h, 20 μL of MTT tetrazolium salt dissolved in phosphate buffered saline (PBS) at a concentration of 5 mg/mL was added to each well and incubated in a CO2 incubator for 4 h. The medium was then aspirated from each well and 150 μL of DMSO was added to dissolve formazan crystals. The absorbance of each well was measured by ELx808 Microplate Reader (BioTek, Winooski, VT, USA) at a test wavelength of 490 nm. TC50, the drug concentration which reduces the cell viability by 50% was calculated by the Logit method.

[4] = system: ACC2; parameters: method as in PMID 12842871, PMID 25333641; details: ACC2 from mammalia; read-out: IC50 against ACC2; cited from earlier work
[5] = system: ACC1; parameters: method as in PMID 12842871, PMID 25333641; details: ACC1 from mammalia; read-out: IC50 against ACC1; cited from earlier work

T2 sequence (D3ZBE2 17-2459): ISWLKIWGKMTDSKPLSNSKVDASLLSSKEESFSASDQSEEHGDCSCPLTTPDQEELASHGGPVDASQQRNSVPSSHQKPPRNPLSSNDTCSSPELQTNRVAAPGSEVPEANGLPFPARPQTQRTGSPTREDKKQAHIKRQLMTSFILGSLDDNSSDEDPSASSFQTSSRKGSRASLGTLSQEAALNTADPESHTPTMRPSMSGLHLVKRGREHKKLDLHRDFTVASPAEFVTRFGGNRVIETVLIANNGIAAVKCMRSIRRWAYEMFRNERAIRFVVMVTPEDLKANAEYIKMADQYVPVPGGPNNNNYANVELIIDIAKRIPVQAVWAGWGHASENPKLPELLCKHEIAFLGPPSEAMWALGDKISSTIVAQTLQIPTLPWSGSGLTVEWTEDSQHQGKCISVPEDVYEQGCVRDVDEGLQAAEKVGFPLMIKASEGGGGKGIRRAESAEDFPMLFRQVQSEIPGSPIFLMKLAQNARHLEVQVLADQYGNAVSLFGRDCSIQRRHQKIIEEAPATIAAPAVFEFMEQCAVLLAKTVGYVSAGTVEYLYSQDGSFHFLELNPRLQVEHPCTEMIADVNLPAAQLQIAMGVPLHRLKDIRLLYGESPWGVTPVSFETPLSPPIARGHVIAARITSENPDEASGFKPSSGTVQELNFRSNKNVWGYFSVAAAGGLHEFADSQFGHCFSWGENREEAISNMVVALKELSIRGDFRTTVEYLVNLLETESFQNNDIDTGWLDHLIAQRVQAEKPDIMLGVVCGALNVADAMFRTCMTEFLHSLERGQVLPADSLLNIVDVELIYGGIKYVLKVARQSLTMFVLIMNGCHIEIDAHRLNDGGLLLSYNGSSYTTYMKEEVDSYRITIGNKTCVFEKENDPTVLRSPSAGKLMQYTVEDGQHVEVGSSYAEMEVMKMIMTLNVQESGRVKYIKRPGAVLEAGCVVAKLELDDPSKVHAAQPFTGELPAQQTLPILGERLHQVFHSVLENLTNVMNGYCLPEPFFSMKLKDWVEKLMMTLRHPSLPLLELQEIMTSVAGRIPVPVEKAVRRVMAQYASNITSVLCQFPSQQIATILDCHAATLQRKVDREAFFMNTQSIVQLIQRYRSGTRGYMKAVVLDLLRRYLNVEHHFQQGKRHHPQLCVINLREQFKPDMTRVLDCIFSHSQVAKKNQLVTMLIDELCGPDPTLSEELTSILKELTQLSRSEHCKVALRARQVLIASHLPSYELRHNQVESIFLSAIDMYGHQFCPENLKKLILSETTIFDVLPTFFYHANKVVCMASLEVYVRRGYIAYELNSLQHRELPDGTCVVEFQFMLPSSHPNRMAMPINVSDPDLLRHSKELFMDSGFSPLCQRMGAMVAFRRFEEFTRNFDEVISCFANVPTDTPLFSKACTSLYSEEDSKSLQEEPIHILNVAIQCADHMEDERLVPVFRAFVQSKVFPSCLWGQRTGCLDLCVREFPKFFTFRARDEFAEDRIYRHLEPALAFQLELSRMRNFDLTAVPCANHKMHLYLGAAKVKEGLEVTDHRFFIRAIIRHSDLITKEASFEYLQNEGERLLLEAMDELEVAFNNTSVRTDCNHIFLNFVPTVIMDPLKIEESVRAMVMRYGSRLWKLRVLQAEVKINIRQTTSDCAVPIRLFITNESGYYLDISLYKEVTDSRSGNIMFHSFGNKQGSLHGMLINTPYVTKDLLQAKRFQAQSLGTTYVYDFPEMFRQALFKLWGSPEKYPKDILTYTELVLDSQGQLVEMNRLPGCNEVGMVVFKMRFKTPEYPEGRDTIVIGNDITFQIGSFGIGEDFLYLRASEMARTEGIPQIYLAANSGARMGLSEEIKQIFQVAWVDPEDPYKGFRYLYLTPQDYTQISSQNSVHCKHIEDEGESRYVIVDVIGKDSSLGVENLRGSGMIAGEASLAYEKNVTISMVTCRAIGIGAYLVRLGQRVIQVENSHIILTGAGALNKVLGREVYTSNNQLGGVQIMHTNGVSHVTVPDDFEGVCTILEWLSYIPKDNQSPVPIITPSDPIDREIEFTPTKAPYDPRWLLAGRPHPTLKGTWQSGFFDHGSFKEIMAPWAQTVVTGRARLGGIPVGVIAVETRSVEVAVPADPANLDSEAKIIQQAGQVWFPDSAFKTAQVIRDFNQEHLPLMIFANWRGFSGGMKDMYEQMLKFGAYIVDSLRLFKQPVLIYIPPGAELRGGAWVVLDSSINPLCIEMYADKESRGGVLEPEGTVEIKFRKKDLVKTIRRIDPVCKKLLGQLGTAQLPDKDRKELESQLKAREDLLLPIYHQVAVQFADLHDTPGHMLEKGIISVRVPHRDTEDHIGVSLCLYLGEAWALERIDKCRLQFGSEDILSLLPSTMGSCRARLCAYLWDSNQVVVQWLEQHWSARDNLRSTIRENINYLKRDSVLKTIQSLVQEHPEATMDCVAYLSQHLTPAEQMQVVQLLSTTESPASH

| IC50 [1] [nM] | IC50 [2] [nM] | melting point [°C] | SMILES | TC50 (concentration which reduces the cell viability by 50%) [3] [nM] | IC50 [4] [nM] | IC50 [5] [nM] |
| --- | --- | --- | --- | --- | --- | --- |
| 189 | 172 | – | COc1ccc(-c2cc(C(=O)N3CCC(N4CCC[C@@H](C(=O)N5CCOCC5)C4)CC3)c3ccccc3n2)cc1 [7a, (R)-(2-(4-Methoxyphenyl)quinolin-4-yl)(3-(morpholine-4-carbonyl)-[1,4′-bipiperidin]-1′-yl)methanone] | >100000 | – | – |
| 750 | 360 | 90 to 92 | COc1ccc(-c2cc(C(=O)N3CCC(N4CCC[C@@H](C(=O)N(C)Cc5ccccc5)C4)CC3)c3ccccc3n2)cc1 [7b, (R)-N-Benzyl-1'-(2-(4-methoxyphenyl)quinoline-4-carbonyl)-N-methyl-[1,4'-bipiperidine]-3-carbox-amide] | >100000 | – | – |
| 940 | 205 | 101 to 102 | CCN(CC)C(=O)[C@@H]1CCCN(C2CCN(C(=O)c3cc(-c4ccc(OC)cc4)nc4ccccc34)CC2)C1 [7c, (R)-N,N-Diethyl-1'-(2-(4-methoxyphenyl)quinoline-4-carbonyl)-[1,4'-bipiperidine]-3-carboxamide] | >100000 | – | – |
| 620 | 294 | 108 to 110 | COc1ccc(-c2cc(C(=O)N3CCC(N4CCC[C@@H](C(=O)N5CCN(C)CC5)C4)CC3)c3ccccc3n2)cc1 [7d, (R)-(2-(4-Methoxyphenyl)quinolin-4-yl)(3-(4-methylpiperazine-1-carbonyl)-[1,4'-bipiperidin]-1'-yl)-methanone] | >100000 | – | – |
| 750 | 382 | – | COc1ccc(-c2cc(C(=O)N3CCC(N4CCC[C@@H](C(=O)N5CCCC5)C4)CC3)c3ccccc3n2)cc1 [7e, (R)-(2-(4-Methoxyphenyl)quinolin-4-yl)(3-(pyrrolidine-1-carbonyl)-[1,4'-bipiperidin]-1'-yl)methanone] | >100000 | – | – |
| > 1000 | 920 | 89 to 91 | COc1ccc(-c2cc(C(=O)N3CCC(N4CCC[C@@H](C(=O)N5CCCCC5)C4)CC3)c3ccccc3n2)cc1 [7f, (R)-(2-(4-Methoxyphenyl)quinolin-4-yl)(3-(piperidine-1-carbonyl)-[1,4′-bipiperidin]-1′-yl)methanone] | – | – | – |
| 860 | 810 | 92 to 93 | O=C(c1cc(-c2ccccc2)nc2ccccc12)N1CCC(N2CCC[C@@H](C(=O)N3CCOCC3)C2)CC1 [7g, (R)-(3-(Morpholino-4-carbonyl)-[1,4'-bipiperidin]-1'-yl)(2-phenylquinolin-4-yl)methanone] | >100000 | – | – |
| > 1000 | > 1000 | 87 to 89 | O=C(c1cc(-c2ccc(Cl)cc2)nc2ccccc12)N1CCC(N2CCC[C@@H](C(=O)N3CCOCC3)C2)CC1 [7h, (R)-(2-(4-Chlorophenyl)quinolin-4-yl)(3-(morpholine-4-carbonyl)-[1,4'-bipiperidin]-1'-yl)methanone] | – | – | – |
| > 1000 | > 1000 | – | O=C(c1cc(-c2ccccc2Cl)nc2ccccc12)N1CCC(N2CCC[C@@H](C(=O)N3CCOCC3)C2)CC1 [7i, (R)-(2-(2-Chlorophenyl)quinolin-4-yl)(3-(morpholine-4-carbonyl)-[1,4'-bipiperidin]-1'-yl)methanone] | – | – | – |
| 600 | 650 | – | COc1ccc(-c2cc(C(=O)N3CCC4(CC3)CC(=O)c3ccccc3O4)c3ccccc3n2)cc1 [12a, 1'-(2-(4-Methoxyphenyl)quinoline-4-carbonyl)spiro[chroman-2,4'-piperidin]-4-one] | >100000 | – | – |
| 760 | 820 | – | COc1ccc(-c2cc(C(=O)N3CCC4(CC3)CC(=O)c3ccccc3O4)c3ccccc3n2)cc1OC [12b, 1'-(2-(3,4-Dimethoxyphenyl)quinoline-4-carbonyl)spiro[chroman-2,4'-piperidin]-4-one] | >100000 | – | – |
| > 1000 | > 1000 | – | Cc1ccccc1-c1cc(C(=O)N2CCC3(CC2)CC(=O)c2ccccc2O3)c2ccccc2n1 [12c, 1'-(2-(o-Tolyl)quinoline-4-carbonyl)spiro[chroman-2,4'-piperidin]-4-one] | – | – | – |
| > 1000 | 940 | – | O=C1CC2(CCN(C(=O)c3cc(-c4ccccc4Cl)nc4ccccc34)CC2)Oc2ccccc21 [12d, 1'-(2-(2-Chlorophenyl)quinoline-4-carbonyl)spiro[chroman-2,4'-piperidin]-4-one] | – | – | – |
| > 1000 | > 1000 | – | O=C1CC2(CCN(C(=O)c3cc(-c4ccc(Cl)cc4)nc4ccccc34)CC2)Oc2ccccc21 [12e, 1'-(2-(4-Chlorophenyl)quinoline-4-carbonyl)spiro[chroman-2,4'-piperidin]-4-one] | – | – | – |
| > 1000 | > 1000 | – | O=C1CC2(CCN(C(=O)c3cc(Cl)nc4ccccc34)CC2)Oc2ccccc21 [12f, 1'-(2-Chloroquinoline-4-carbonyl)spiro[chroman-2,4'-piperidin]-4-one] | – | – | – |
| > 1000 | > 1000 | 138 to 140 | O=C1CC2(CCN(C(=O)c3cc(N4CCOCC4)nc4ccccc34)CC2)Oc2ccccc21 [12g, 1'-(2-Morpholinoquinoline-4-carbonyl)spiro[chroman-2,4'-piperidin]-4-one] | – | – | – |
| – | 185 | – | O=C(c1c2ccccc2cc2ccccc12)N1CCC(N2CCC[C@@H](C(=O)N3CCOCC3)C2)CC1 [CP-640186, reference compound] | >100000 | ~50 | ~50 |
